Values quoted from earlier work, collected in patent publication US6365176B1, “Nutritional supplement for patients with type 2 diabetes mellitus for lipodystrophy” (Functional Foods, Inc., priority 2000, dated 2002).

Legend:
[1] = in vivo
[2] = doses between 200 and 1,000 μg daily

O=C(CO)[C@@H](O)[C@H](O)[C@H](O)CO [Fructose]
glycemic index (GI) [1]: 32

chromium picolinate [Chromium as picolinate]
fasting plasma glucose concentrations [2]: beneficial effect
